For four molecules, TD50, selectivity ratio and ED50 results are on record in patent US5446066A, “Substituted (arylalkoxybenzyl)aminopropanamide derivatives and process for their preparation” (Farmitalia Carlo Erba S.r.l., priority 1993, dated 1995).

One series can be described thus: in vivo. How it is done: The neurotoxicity of the compound and of the reference anticonvulsants was assessed with the rotorod test (Dunan and Miye., J. Am. Pharm. Ass. Sci. Ed., 1957, 46, 208; Kinnard et al., J. Pharmacol. Exp. Ther. 1957, 121, 354; Horowitz. Nature, 1963, 200, 369).
(§1) For instance, the following Table 1 summarizes the activity and neurotoxicity data obtained in the MES test and in the rotorod test, respectively, for a representative group of compounds according to the present invention, in comparison with the prior art compound 2-[4-(3-phenylpropyl)oxybenzyl]aminopropanamide methanesulfonate (internal code FCE 27023) which is known from WO-90/14334
TD50 means toxic dose in 50% of treated animals
TI means therapeutic index (TD50 /ED50)

Series [1] can be described thus: antagonism of maximal electroshock seizures (MES test). Format: in vivo. Particulars: read-out: MES-ED50 (effective dose in 50% of treated animals). How it is done: The compounds of the invention are active on the central nervous system (CNS) and can be used in therapy, for example as antiepileptics, in the treatment of Parkinson's disease and as neuroprotective agents, e.g. in degenerative processes associated with normal ageing or pathological situations, such as brain ischemia; they can also be used as antidepressants, hypnotics and antispastic agents. The activity on the CNS of the compounds of the invention was evaluated on the basis of pharmacological methods, such as, for example, the antagonism of convulsions and lethality induced by intravenous injection of bicuculline in mice (Antiepileptic Drugs, D. M. Woodbury et al. eds., 2nd edition, Raven Press, New York, 1982), or the antagonism of maximal electroshock seizures (MES) (Woodbury, L. A. and Davenport V. D., Arch. Int. Pharmacodyn. Ther. 92; 97-104, 1952).
as §1
ED50 means effective dose in 50% of treated animals
For orientation: Protection in the maximal electroshock model is a classic sign of anticonvulsant action.

`CC(NCc1ccc(OCCCCCc2ccccc2)cc1)C(N)=O` (stereo not drawn) [compound 28244]: in “in vivo”, the TD50 worked out at 1010 mg/kg and the selectivity ratio was determined as 81. The ED50 in series [1] worked out at 12.5 mg/kg.
Turning to `NC(=O)C(CO)NCc1ccc(OCCCc2ccccc2)cc1` (stereo not drawn) [compound 28245], in “in vivo”, the TD50 was determined as 863 mg/kg and the selectivity ratio was 100. Besides, the ED50 in series [1] was determined as 8.6 mg/kg.
On the same counts, the results for `CC(NCc1ccc(OCCCc2ccccc2)cc1)C(N)=O` (stereo not drawn) [compound 27023] are 584 mg/kg, 66 and 8.8 mg/kg.
In the case of `CC(NCc1ccc(OCCCCc2ccccc2)cc1)C(N)=O` (stereo not drawn) [compound 28243], in the series “in vivo”, the TD50 worked out at 1000 mg/kg and the selectivity ratio was 82. In addition, the ED50 in series [1] was 12.4 mg/kg.

For orientation: ED50 means the dose at which the effect has come halfway, by size or by number of responders.
